Tests used:
[1] = spontaneous hydrolysis in ACSF; type: physicochemical
Method: […] The solution was sampled at the beginning of the storage and 48 hours later and 4-methoxy-5,7-dinitro-2,3-dihydro-1H-indole was identified from the hydrolysis products by using LCMS method. The compound was identified by the peak of its molecule weight at 240. The sample taken after 48 hours was measured with HPLC equipment. Without correction 46.7% of DNI-Glu*TFA hydrolysed.

[2] = system: Hippocampus neurons in CA1 stratum radiatum; test: spontaneous activity of the cell (EPSP frequency), voltage-clamp test; type: cell-based, Wistar rats
Method: (§1) Acute hippocampus slices were prepared from 16-20 day old Wistar rats using isoflurane anaesthesia followed by swift decapitation. The process was in accordance with the Hungarian Act of Animal Care and Experimentation (1998. XXVIII, section 243). Coronal (300 μm) brain slices were cut with a vibratome and stored at room temperature in artificial cerebrospinal fluid (ACSF). The composition of the ACSF solution is described above.
(§2) Hippocampus neurons in CA1 stratum radiatum near the border of the stratum lacunosum-moleculare were visualized using 900 nm infrared oblique illumination. Current-clamp recordings were made at 32° C. (MultiClamp 700B, Digidata 1440; Molecular Devices, Sunnyvale, Calif., USA) with glass electrodes (6-9 MΩ) filled with (in mM): 125 K-gluconate, 20 KCl, 10 HEPES, 10 Di-Tris-salt phosphocreatine, 0.3 Na-GTP, 4 Mg-ATP, 10 NaCl, 0.06 Oregon Green BAPTA-1 (OGB-1) and biocytin. Cells with a resting membrane potential more negative than −50 mV were accepted. The recorded cells were classified as nonpyramidal cells according to their electrophysiological properties.
A.) Using the test setup of the two-photon excitation process according to Example 16 spontaneous potential changes of the observed cell was measured.
At the beginning of the experiment the control level of potential changes (EPSP) was measured in the absence of DNI-Glu. The measured fluctuation is shown in FIG. 1/A. Following the test DNI-Glu (2.5 mM) was added to the measuring cell. The measured fluctuation is shown in FIG. 1/B. Then 0.1-0.2 unit/ml L-glutamic acid dehydrogenase enzyme and 200 μM NADP (β-Nicotinamide adenine dinucleotide phosphate) were added.
B.) The experiment described in point A.) was repeated 8 times using other cells in each case. The column diagram can be seen on the left side. The average of the control level is shown in column a.). The average of the change due to the caged compound is shown in column b.), while the average level after the addition of the enzyme in column c.).

[3] = system: Hippocampus neurons in CA1 stratum radiatum; test: two-photon uncaging on acute hippocampus slices with neutralizing agents (EPSP, Ca2+ transient); type: cell-based, Wistar rats; details: 2.5 mM
Method: as §1, §2
Two-photon imaging started 15-20 minutes after attaining the whole-cell configuration on a two-photon laser-scanning system (Femto2D, Femtonics Ltd., Budapest) using femtosecond lasers (830-850 nm), Mai Tai HP, SpectraPhysics, Mountain View, Calif.). […]

[4] = according to WO2008/094922; cited from earlier work
hippocampus neurons = details: according to WO2008/094922; cited from earlier work
[5] = weight increase on storage (hygroscopicity); type: physicochemical; details: 25° C. 50% relative humidity, after 72 hours storage
Method: We measured the weight increase of MNI-Glubase and its salts with hydrochloric and trifluoroacetic acid at 25° C. 50% relative humidity.

[6] = system: hippocampal pyramide cell; test: two-photon stimulation of a hippocampal pyramide cell (Example 20); type: cell-based, Wistar rats; details: for Calcium tranziens by two-photon stimulation / somatically recorded EPSP by two-photon stimulation: 2.5 mM, 740 nm, with L-glutamic acid dehydrogenase and NADP; for toxicity: pyramid cell response to 500 ms -100, 0 and 125 pA current injection, waveform after stimulation
Method: as §1, §2
a.) After achieving the whole-cell mode and filling the interneurons with 60 μM OGB-1, the bath solution was exchanged to ACSF containing MNI-Glu-TFA [2.5 mM, Tocris]. Photolysis of MNI-Glu-TFA was performed with 710-830 nm ultrafast, pulsed laser light (Mai Tai HP Deep See, SpectraPhysics, Mountain View, Calif.). The intensity of the uncaging laser beam was controlled with an electro-optical modulator (Model 350-80 LA, Conoptics). Dispersion compensation was set to have maximal response at the depth of uncaging (50-80 μm from surface). The uncaging laser beam was coupled into the imaging optical pathway with a dichroic mirror (custom laser combiner, z750bcm; Chroma Technology Corp, Rockingham, USA). Chromatic aberration was compensated at the focal plane. Radial and axial beam (imaging and photochemical stimulating) alignment errors were held below 100 nm and 300 nm, respectively. Imaging was interleaved with two-photon glutamate uncaging periods, when galvanometers jumped to the maximum 15-25 selected locations (<60 μs jump time) and returned back to the 3D or 2D trajectory thereafter. The position of uncaging sites was finely adjusted according to background images taken. Photolysis of caged glutamate was performed in “clustered” (0.8±0.1 μm distance between inputs) patterns along the dendrite. The single spot uncaging time and laser intensity was set to reproduce uEPSPs and mEPSPs induced by the local application of high osmolar external solution at similar distances from the soma (amplitude of unitary gluEPSP: 0.56±0.09 mV, mEPSPs: 0.58±0.1, uEPSP: 0.55±0.12; exposure time 0.2-0.5 ms/input). Small drifts of the sample (on the order of 0.1-0.2 μm) during the mapping were compensated manually according to regularly taken background images. b.) After the test the perfusion rate was set to 10 ml/min in order to increase the exchange rate of ACSF containing 2.5 mM DNI-Glu*TFA used in the subsequent test. The test was repeated with the same setting of the equipment on the same dendrite section.
The experiment was carried out according to Example 16 with the difference that the cell was filled with calcium sensitive dye (Fluo4) and anatomical dye (ALEXA 594). The experiments were carried out in accordance of the Example 16 with the following differences: after patch clamp the perfusion solution exchange to ACSF containing 2.5 mM iDMPO-DNI-Glutamic acid*2TFA and, or ACSF containing 2.5 mM iDMBO-DNI-Glutamic acid*2TFA, 0.1-0.2 units/ml of L-glutamic acid dehydrogenase and β-Nicotinamide adenine dinucleotide phosphate for the second measurement. The β-Nicotinamide adenine dinucleotide phosphate was kept in a concentration of 50-100 μM during the experiments. All chemical agents (cage compound, dehidrogenase, NADP apply into the bath). During the experiments the evaporation loss of dH2O was continuously refilled. […]

COc1c([N+](=O)[O-])cc([N+](=O)[O-])c2c1CCN2C(=O)CCC(N)C(=O)O.O=C(O)C(F)(F)F (stereo not drawn) [DNI-Glu*TFA, trifluoroacetic acid salt of 2-amino-5-(4′-methoxy-5′,7′-dinitro-2′,3′-dihydro-indol-1′-yl)-5-oxo-pentanoic acid]
hydrolysed ([1]; 0.06 mg/ml in ACSF, stored at 32° C., 48 hours, HPLC, without correction): 46.7% | speed of the formation of the glutamic acid ([1]; in 12 ml of ACSF): 1 µmol/min

COc1c([N+](=O)[O-])cc([N+](=O)[O-])c2c1CCN2C(=O)CCC(N)C(=O)O (stereo not drawn) [DNI-Glu, 2-amino-5-(4′-methoxy-5′,7′-dinitro-2′,3′-dihydro-indol-1-yl)-5-oxo-pentanoic acid]
frequency of EPSP / spontaneous responses after addition of glutamate dehydrogenase enzyme ([2]; DNI-Glu 2.5 mM, then L-glutamic acid dehydrogenase and NADP): restored to the control level | EPSP Frequency MEAN ([2]; DNI-Glu 2.5 mM, enzyme = 0.1-0.2 unit/ml L-glutamic acid dehydrogenase and 200 μM NADP, repeated 8 times, other cells): 3.87 Hz | frequency of EPSP on addition to the perfusion solution ([2]; DNI-Glu added, no enzyme): increased | excitatory postsynaptic potential (EPSP) resulted by irradiation, compared with MNI-Glu ([3]; FIG. 2/A): significantly higher | Ca2+ transient signal as a response of the irradiation, compared with MNI-Glu ([3]; FIG. 2/B): significantly higher | dissolution in physiological solutions [4]: so bad | electrical signals in two-photon irradiation experiments (hippocampus neurons): no electrical signals

COc1ccc([N+](=O)[O-])c2c1CCN2C(=O)CC[C@H](N)C(=O)O.Cl [MNI-Glu HCl salt]
weight increase [5]: 13.6%

COc1ccc([N+](=O)[O-])c2c1CCN2C(=O)CCC(N)C(=O)O.O=C(O)C(F)(F)F (stereo not drawn) [MNI-Glu trifluoroacetic acid salt]
weight increase [5]: 4%

COc1ccc([N+](=O)[O-])c2c1CCN2C(=O)CCC(N)C(=O)O (stereo not drawn) [MNI-Glubase, 2-amino-5-(4-methoxy-7-nitro-2,3-dihydro-indol-1-yl)-5-oxo-pentanoic acid]
weight increase [5]: 20%

di-trifluoroacetic acid salt of 2-amino-1-(4′-dimethylamino-isobutoxy-5′,7′-dinitro-2′,3′-dihydro-indol-1′-yl)-5-oxo-pentanoic [iDMBO-DNI-Glu TFA]
Calcium tranziens by two-photon stimulation [6]: the same as Panel (D) | somatically recorded EPSP by two-photon stimulation [6]: the same as Panel (D) | toxicity [6]: not detected

di-trifluoroacetic acid salt of 2-amino-1-(4′-dimethylamino-isopropoxy-5′,7′-dinitro-2′,3′-dihydro-indol-1′-yl)-5-oxo-pentanoic [iDMPO-DNI-Glu TFA]
Calcium tranziens by two-photon stimulation [6]: could evoke | somatically recorded EPSP by two-photon stimulation [6]: could evoke | toxicity [6]: not detected

Source: patent US9650664B2, “Use of photocleavable compounds” (FEMTONICS KFT, priority 2011, dated 2017)
